Test results from patent US20040110802A1, “Antibacterial benzoic acid derivatives” (priority 2002, published 2004).
≈ marks a conversion by molar mass, not a printed value.

What follows are compounds tested on SAUR 9218 (assay: MIC Test Method, standard agar dilution). Conditions: agar dilution, Mueller Hinton agar, incubated overnight at 35° C.; lowest concentration that inhibits visible growth.
Format: cell-based
Method in brief: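 MIC (μg/ml) was read as the lowest drug level without visible growth of SAUR 9218 after overnight incubation at 35 °C. Inocula of about 10^4 to 10^5 cells per spot were applied to Mueller Hinton agar containing 2-fold serial compound dilutions.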

Row | SAUR 9218 MIC [µg/mL] | SMILES
1 | 128 | Cc1sc(C(=O)Nc2ccc(C#N)cc2C(=O)O)cc1S(=O)(=O)N(C)C(C)C(O)c1ccccc1 (centres unmarked) [drawing 960]
2 | 2 | CN(c1ccc(Cl)cc1)S(=O)(=O)c1cc(C(=O)Nc2ccc(Br)cc2C(=O)O)cs1 [drawing 825]

Same assay, conditions: agar dilution, Mueller Hinton agar, incubated overnight at 35° C.; lowest concentration that inhibits visible growth; read-out: SAUR 9218 MIC

Row | MIC [µg/mL] | SMILES
3 | 4 (≈ 9.52 µM) | COC(=O)CC(=O)Nc1cccc2cc(C(=O)Nc3ccc(C#N)cc3C(=O)O)[nH]c12
4 | 0.25 (≈ 0.611 µM) | CSCCOc1cccc2cc(C(=O)Nc3ccc(C#N)cc3C(=O)O)n(C)c12
5 | 0.5 (≈ 1.05 µM) | N#Cc1ccc(NC(=O)c2noc3ccc(S(=O)(=O)N(CCO)CCO)cc23)c(C(=O)O)c1
6 | 0.125 (≈ 0.264 µM) | N#Cc1ccc(NC(=O)c2cc3cccc(NC(=O)C(Cl)c4ccccc4)c3[nH]2)c(C(=O)O)c1 (centres unmarked)
7 | > 128 | O=C(O)c1cc(Br)ccc1NC(=O)c1cc(Cl)cc[n+]1[O-]
8 | 1 (≈ 2.04 µM) | COC(=O)CCCCCCC(=O)Nc1cccc2cc(C(=O)Nc3ccc(C#N)cc3C(=O)O)[nH]c12
9 | 2 (≈ 4.97 µM) | CC1(C(=O)Nc2cccc3cc(C(=O)Nc4ccc(C#N)cc4C(=O)O)[nH]c23)CC1
10 | 0.125 (≈ 0.281 µM) | N#Cc1ccc(NC(=O)c2cc3cccc(S(=O)(=O)c4ccccc4)c3[nH]2)c(C(=O)O)c1
11 | > 128 | CCCCN(CCCC)CCCNS(=O)(=O)c1cc(C(=O)Nc2ccc(Br)cc2C(=O)O)sc1C
12 | 0.5 (≈ 1.38 µM) | COCCn1c(C(=O)Nc2ccc(C#N)cc2C(=O)O)cc2ccccc21
13 | 16 (≈ 46.3 µM) | COCc1onc(C(=O)Nc2ccc(C#N)cc2C(=O)O)c1COC
14 | 16 (≈ 33.2 µM) | N#Cc1ccc(NC(=O)c2cc3cccc(NC(=O)C45CC6CC(CC(C6)C4)C5)c3[nH]2)c(C(=O)O)c1
15 | 2 (≈ 4.47 µM) | Cc1sc(C(=O)Nc2ccc(C#N)cc2C(=O)O)cc1S(=O)(=O)N1CCCC(C)C1 (centres unmarked)
16 | 0.5 (≈ 1.12 µM) | CCCCC(CC)C(=O)Nc1cccc2cc(C(=O)Nc3ccc(C#N)cc3C(=O)O)[nH]c12 (centres unmarked)
17 | 16 (≈ 54.9 µM) | C#Cc1cncc(C(=O)Nc2ccc(C#N)cc2C(=O)O)c1
18 | 2 (≈ 5.76 µM) | CC(C)n1c(C(=O)Nc2ccc(C#N)cc2C(=O)O)cc2ccccc21
19 | 0.125 (≈ 0.294 µM) | Cn1c(C(=O)Nc2ccc(C#N)cc2C(=O)O)cc2ccc(OCc3ccccc3)cc21
20 | 1 (≈ 2.13 µM) | N#Cc1ccc(NC(=O)c2cc3cccc(NC(=O)COCc4ccccc4)c3[nH]2)c(C(=O)O)c1
21 | 0.125 (≈ 0.261 µM) | CS(=O)(=O)N(c1ccc2onc(C(=O)Nc3ccc(C#N)cc3C(=O)O)c2c1)S(C)(=O)=O
22 | 0.5 (≈ 1.38 µM) | N#Cc1ccc(NC(=O)c2cc3cccc4c3n2CCC4O)c(C(=O)O)c1 (centres unmarked)
23 | 64 (≈ 125 µM) | Cc1sc(C(=O)Nc2ccc(C#N)cc2C(=O)O)cc1S(=O)(=O)N(C)CCC(O)c1ccccc1 (centres unmarked)
24 | 1 (≈ 2.4 µM) | COc1cccc(-c2cnc(C(=O)Nc3ccc(Br)cc3C(=O)O)o2)c1
25 | 0.5 (≈ 1.14 µM) | CCCS(=O)(=O)Nc1cccc2cc(C(=O)Nc3ccc(C#N)cc3C(=O)O)n(C)c12

Row | MIC [µg/mL] | SMILES
26 | 0.25 (≈ 0.524 µM) | N#Cc1ccc(NC(=O)c2noc3cc(OS(=O)(=O)Cc4ccccc4)ccc23)c(C(=O)O)c1
27 | 64 (≈ 199 µM) | N#Cc1ccc(NC(=O)c2cncc(C#CCO)c2)c(C(=O)O)c1
28 | 0.125 (≈ 0.275 µM) | CNS(=O)(=O)c1ccc2onc(C(=O)Nc3ccc(Br)cc3C(=O)O)c2c1
29 | 128 (≈ 381 µM) | Cc1cnc(C(=O)Nc2ccc(Br)cc2C(=O)O)cn1
30 | 2 (≈ 4.05 µM) | Cc1noc(C)c1S(=O)(=O)Nc1ccc2cc(C(=O)Nc3ccc(C#N)cc3C(=O)O)n(C)c2c1
31 | 0.06 (≈ 0.0957 µM) | Cn1c(C(=O)Nc2ccc(C#N)cc2C(=O)O)cc2ccc(N(S(=O)(=O)c3cccs3)S(=O)(=O)c3cccs3)cc21
32 | 8 (≈ 23.1 µM) | Cn1cccc1-c1cncc(C(=O)Nc2ccc(C#N)cc2C(=O)O)c1
33 | 2 (≈ 4.92 µM) | COCC(=O)Nc1ccc2cc(C(=O)Nc3ccc(C#N)cc3C(=O)O)n(C)c2c1
34 | 1 (≈ 2.63 µM) | N#Cc1ccc(NC(=O)c2cc(CSc3ccncc3)on2)c(C(=O)O)c1
35 | 0.06 (≈ 0.155 µM) | N#Cc1ccc(NC(=O)c2ccc(SCCCCCO)nn2)c(C(=O)O)c1
36 | 8 (≈ 14.7 µM) | Cc1c(S(=O)(=O)N(C)c2ccc(Cl)cc2)csc1C(=O)Nc1ccc(Br)cc1C(=O)O
37 | 16 (≈ 49.8 µM) | Cc1coc2cnc(C(=O)Nc3ccc(C#N)cc3C(=O)O)cc12
38 | 0.25 (≈ 0.548 µM) | N#Cc1ccc(NC(=O)c2cc3cccc(NC(=O)Cc4ccc(F)cc4)c3[nH]2)c(C(=O)O)c1
39 | 1 (≈ 2.27 µM) | N#Cc1ccc(NC(=O)c2cc3cccc(NC(=O)c4ccccc4O)c3[nH]2)c(C(=O)O)c1
40 | 0.125 (≈ 0.326 µM) | CCCCCCSc1ccc(C(=O)Nc2ccc(C#N)cc2C(=O)O)nc1
41 | 2 (≈ 4.03 µM) | CCCCOc1ccc(C(=O)Nc2cccc3cc(C(=O)Nc4ccc(C#N)cc4C(=O)O)[nH]c23)cc1
42 | 0.5 (≈ 1.25 µM) | CS(=O)(=O)Nc1ccc2onc(C(=O)Nc3ccc(C#N)cc3C(=O)O)c2c1
43 | 64 (≈ 138 µM) | COCC1CCCN1S(=O)(=O)c1cc(C(=O)Nc2ccc(C#N)cc2C(=O)O)sc1C (centres unmarked)
44 | 4 (≈ 11.2 µM) | CCCn1c(C(=O)Nc2ccc(Cl)cc2C(=O)O)cc2ccccc21
45 | 0.5 (≈ 0.98 µM) | O=C(O)c1cc(Br)ccc1NC(=O)c1noc2ccc(S(=O)(=O)N3CCOCC3)cc12
46 | 1 (≈ 2.41 µM) | COCCOCCCSc1ccc(C(=O)Nc2ccc(C#N)cc2C(=O)O)cn1
47 | 32 (≈ 76.1 µM) | O=C(Nc1ccc(Br)cc1C(=O)O)c1ccc(-c2ccc(Cl)cc2)o1
48 | 0.25 (≈ 0.589 µM) | CCCCCSc1cnc(C(=O)Nc2ccc(Br)cc2C(=O)O)cn1

Row | MIC [µg/mL] | SMILES
49 | 2 (≈ 4.14 µM) | Cn1c(C(=O)Nc2ccc(C#N)cc2C(=O)O)cc2cccc(OCC(O)COCC(O)CO)c21 (centres unmarked)
50 | 4 (≈ 11.5 µM) | Cc1nn(-c2ccccc2)nc1C(=O)Nc1ccc(C#N)cc1C(=O)O
51 | 128 (≈ 260 µM) | CCN(CC)CCN(CC)S(=O)(=O)c1cc(C(=O)Nc2ccc(C#N)cc2C(=O)O)sc1C
52 | 1 (≈ 2.43 µM) | O=C(Nc1ccc(Cl)cc1C(=O)O)c1cc(-c2ccccc2C(F)(F)F)on1
53 | 0.5 (≈ 1.07 µM) | COc1ccccc1CC(=O)Nc1cccc2cc(C(=O)Nc3ccc(C#N)cc3C(=O)O)[nH]c12
54 | 1 (≈ 2.92 µM) | O=C(Nc1ccc(Cl)cc1C(=O)O)c1ncc(-c2ccccc2)o1
55 | 16 (≈ 29.9 µM) | Cc1c(S(=O)(=O)NC2Cc3ccccc3C2)csc1C(=O)Nc1ccc(Br)cc1C(=O)O
56 | 8 (≈ 23.1 µM) | N#Cc1ccc(NC(=O)c2cncc(Br)c2)c(C(=O)O)c1
57 | 2 (≈ 5.3 µM) | N#Cc1ccc(NC(=O)c2ncc(-c3ccc4c(c3)OCO4)o2)c(C(=O)O)c1
58 | 2 (≈ 4.82 µM) | N#Cc1ccc(NC(=O)c2cc3cccc(NC(=O)c4ccno4)c3[nH]2)c(C(=O)O)c1
59 | 2 (≈ 3.89 µM) | COc1ccc(OC)c(NC(=O)Nc2ccc3cc(C(=O)Nc4ccc(C#N)cc4C(=O)O)n(C)c3c2)c1
60 | 2 (≈ 4.67 µM) | Cn1c(C(=O)Nc2ccc(C#N)cc2C(=O)O)cc2ccc(NC(=O)c3ccco3)cc21
61 | 128 (≈ 382 µM) | COc1ccc2[nH]c(C(=O)Nc3ccc(C#N)cc3C(=O)O)cc2c1
62 | 0.25 (≈ 0.529 µM) | N#Cc1ccc(NC(=O)c2cc3cccc(NC(=O)Cc4ccc(Cl)cc4)c3[nH]2)c(C(=O)O)c1
63 | 0.125 (≈ 0.304 µM) | N#Cc1ccc(NC(=O)c2cc3cccc(OCc4ccccc4)c3[nH]2)c(C(=O)O)c1
64 | 4 (≈ 10.2 µM) | COCC(=O)Nc1cccc2cc(C(=O)Nc3ccc(C#N)cc3C(=O)O)[nH]c12
65 | 0.5 (≈ 1.1 µM) | N#Cc1ccc(NC(=O)c2cc3cccc(NC(=O)COc4ccccc4)c3[nH]2)c(C(=O)O)c1
66 | 32 (≈ 64.6 µM) | Cc1c(C(=O)Cc2cncc(C(=O)Nc3ccc(C#N)cc3C(=O)O)c2)c(=O)n(-c2ccccc2)n1C
67 | 4 (≈ 10.2 µM) | CCCCN1C(=O)c2ccc(C(=O)Nc3ccc(C#N)cc3C(=O)O)cc2C1=O
68 | 64 (≈ 119 µM) | CN(C)c1ccc(CNS(=O)(=O)c2cc(C(=O)Nc3ccc(Br)cc3C(=O)O)cs2)cc1
69 | 8 (≈ 17.9 µM) | Cn1c(C(=O)Nc2ccc(C#N)cc2C(=O)O)cc2cccc(NC(=O)N3CCOCC3)c21
70 | 2 (≈ 5.31 µM) | N#Cc1ccc(NC(=O)c2cc(CNCc3ccccc3)on2)c(C(=O)O)c1
71 | 2 (≈ 4.79 µM) | COc1ccccc1-c1cnc(C(=O)Nc2ccc(Br)cc2C(=O)O)o1

Row | MIC [µg/mL] | SMILES
72 | 1 (≈ 2.92 µM) | O=C(Nc1ccc(Cl)cc1C(=O)O)c1cc(-c2ccccc2)on1 [drawing 1106]
73 | 0.25 (≈ 0.701 µM) | CCC(C)Sc1cnc(C(=O)Nc2ccc(C#N)cc2C(=O)O)cn1 (centres unmarked)
74 | 0.125 (≈ 0.286 µM) | CCCCCCSc1ccc(C(=O)Nc2ccc(Br)cc2C(=O)O)cn1
75 | 32 (≈ 59.4 µM) | Cc1sc(C(=O)Nc2ccc(Br)cc2C(=O)O)cc1S(=O)(=O)NCCc1ccc(N)cc1
76 | 0.25 (≈ 0.632 µM) | Cn1c(C(=O)Nc2ccc(C#N)cc2C(=O)O)cc2cccc(-c3ccccc3)c21
77 | 0.125 (≈ 0.29 µM) | O=C(Nc1ccc(Br)cc1C(=O)O)c1cc(-c2ccc3c(c2)OCO3)on1
78 | 4 (≈ 10.8 µM) | CCCCn1c(C(=O)Nc2ccc(Cl)cc2C(=O)O)cc2ccccc21
79 | 0.125 (≈ 0.267 µM) | Cn1c(C(=O)Nc2ccc(C#N)cc2C(=O)O)cc2cccc(NC(=O)NCc3ccccc3)c21
80 | 0.125 (≈ 0.331 µM) | N#Cc1ccc(NC(=O)c2cc(-c3ccc4c(c3)OCO4)on2)c(C(=O)O)c1
81 | 0.5 (≈ 1.24 µM) | CCCCC(=O)Nc1cccc2cc(C(=O)Nc3ccc(C#N)cc3C(=O)O)[nH]c12
82 | 8 (≈ 22.3 µM) | N#Cc1ccc(NC(=O)c2cncc(Oc3ccccc3)c2)c(C(=O)O)c1
83 | 4 (≈ 11.9 µM) | N#Cc1ccc(NC(=O)C2=NOC(c3ccccc3)C2)c(C(=O)O)c1 (centres unmarked)
84 | 0.25 (≈ 0.516 µM) | CCSc1ccc(C(=O)Nc2cccc3cc(C(=O)Nc4ccc(C#N)cc4C(=O)O)[nH]c23)cc1
85 | 0.125 (≈ 0.326 µM) | CCCCC(C)Sc1ccc(C(=O)Nc2ccc(C#N)cc2C(=O)O)cn1 (centres unmarked)
86 | 0.125 (≈ 0.315 µM) | Cc1ccccc1-c1ccc2onc(C(=O)Nc3ccc(C#N)cc3C(=O)O)c2c1
87 | 0.5 (≈ 1.22 µM) | O=C(Nc1ccc(Cl)cc1C(=O)O)c1cc(-c2ccc(C(F)(F)F)cc2)on1
88 | 0.5 (≈ 1.02 µM) | N#Cc1ccc(NC(=O)c2ccc(SCC(=O)c3ccc4c(c3)C(=O)NCO4)nn2)c(C(=O)O)c1
89 | 0.015 (≈ 0.0405 µM) | CCCCCSc1ccc(C(=O)Nc2ccc(C#N)cc2C(=O)O)nn1
90 | 2 (≈ 4.14 µM) | N#Cc1ccc(NC(=O)c2ccc(S(=O)(=O)N3CCc4cc(Cl)ccc43)nc2)c(C(=O)O)c1
91 | 0.5 (≈ 1.22 µM) | O=C(O)c1cc(Cl)ccc1NC(=O)c1cc2ccccc2n1CC1CCCCC1
92 | 0.125 (≈ 0.315 µM) | N#Cc1ccc(NC(=O)c2nnc(SCc3ccccc3)s2)c(C(=O)O)c1
93 | 0.25 (≈ 0.582 µM) | O=C(Nc1ccc(Br)cc1C(=O)O)c1cc(CCCc2ccccc2)on1
94 | 2 (≈ 4.82 µM) | CC(C)Cn1c(C(=O)Nc2ccc(Br)cc2C(=O)O)cc2ccccc21

Row | SMILES | MIC [µg/mL]
95 | N#Cc1ccc(NC(=O)c2noc3cc(-c4ccc([N+](=O)[O-])cc4C(F)(F)F)c([N+](=O)[O-])cc23)c(C(=O)O)c1 | 0.03 (≈ 0.0554 µM)
